Drawing on PubChem BioAssay AID330 (DTP/NCI, 2004), this text covers T/C for 29 compounds.

Where “and” joins values, the source holds several entries; their conditions need not be identical. Identical values can stand only once. Inconclusive results and toxic doses are left out.

This test has as its system P388 leukemia ip, CD2F1 mice, survival T/C. As to the kind of experiment: NCI In Vivo Anticancer Drug Screen. Data for tumor model P388 Leukemia (intraperitoneal) in CD2F1 (CDF1) mice. The conditions noted are these: endpoint: median survival time, higher = longer survival. Summed up:
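Mice carrying the transplanted tumor received test compound or vehicle. Survival was recorded in each group, and the value is the treated-group measurement divided by that of the vehicle-treated control group.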

[1] abbreviates: dose: 50.0 mg/kg/injection, schedule: Q01DX009 (ip), vehicle: saline with Tween-80.
The mark [2] stands for this setting: dose: 100.0 mg/kg/injection, schedule: Q01DX009 (ip), vehicle: saline with Tween-80.
The mark [3] stands for this setting: dose: 200.0 mg/kg/injection, schedule: Q01DX009 (ip), vehicle: saline with Tween-80.
[4] abbreviates: dose: 100.0 mg/kg/injection, schedule: Q01DX001 (ip), vehicle: Klucel (hydroxypropylcellulose) (HPC).
Setting [5] is: dose: 200.0 mg/kg/injection, schedule: Q01DX001 (ip), vehicle: Klucel (hydroxypropylcellulose) (HPC).
[6] abbreviates: dose: 15.0 mg/kg/injection, schedule: Q01DX005 (ip), vehicle: saline with Tween-80.
Where [7] appears, read: dose: 30.0 mg/kg/injection, schedule: Q01DX005 (ip), vehicle: saline with Tween-80.
The mark [8] stands for this setting: dose: 60.0 mg/kg/injection, schedule: Q01DX005 (ip), vehicle: saline with Tween-80.
Setting [9] is: dose: 50.0 mg/kg/injection, schedule: Q01DX009 (ip), vehicle: Klucel (hydroxypropylcellulose) (HPC).
The mark [10] stands for this setting: dose: 100.0 mg/kg/injection, schedule: Q01DX009 (ip), vehicle: Klucel (hydroxypropylcellulose) (HPC).
Where [11] appears, read: dose: 200.0 mg/kg/injection, schedule: Q01DX009 (ip), vehicle: Klucel (hydroxypropylcellulose) (HPC).
The mark [12] stands for this setting: dose: 50.0 mg/kg/injection, schedule: Q01DX005 (ip), vehicle: saline with Tween-80.
Setting [13] is: dose: 100.0 mg/kg/injection, schedule: Q01DX005 (ip), vehicle: saline with Tween-80.
Setting [14] is: dose: 3.12 mg/kg/injection, schedule: Q01DX009 (ip), vehicle: saline with Tween-80.
[15] abbreviates: dose: 50.0 mg/kg/injection, schedule: Q01DX005 (ip), vehicle: Klucel (hydroxypropylcellulose) (HPC).
[16] abbreviates: dose: 100.0 mg/kg/injection, schedule: Q01DX005 (ip), vehicle: Klucel (hydroxypropylcellulose) (HPC).
Where [17] appears, read: dose: 200.0 mg/kg/injection, schedule: Q01DX005 (ip), vehicle: Klucel (hydroxypropylcellulose) (HPC).
[18] abbreviates: dose: 200.0 mg/kg/injection, schedule: Q01DX005 (ip), vehicle: saline with Tween-80.

As to `CN(C)c1ccc(/C=[N+](\C)[O-])cc1`, the T/C (dose: 50.0 mg/kg/injection, schedule: Q01DX009 (ip), vehicle: saline) is 91 % of control; the T/C (dose: 100.0 mg/kg/injection, schedule: Q01DX009 (ip), vehicle: saline) is 98 % of control; the T/C (dose: 200.0 mg/kg/injection, schedule: Q01DX009 (ip), vehicle: saline) was 95 % of control.

In the case of `Cc1cc2c(c(C#N)c1C)NC=NC2C` (stereo unspecified), the T/C runs as follows: under setting [1], 94 % of control; under setting [2], 105 % of control.

`CN1C(=O)C/C(=N/Nc2ccccc2)NC1=O`: the T/C runs as follows: under setting [1], 95 % of control; under setting [2], 100 % of control; under setting [3], 92 % of control.

As for `O=C1C=CC2(C=C1)CCCCC2`, the T/C runs as follows: (dose: 50.0 mg/kg/injection, schedule: Q01DX001 (ip), vehicle: Klucel (hydroxypropylcellulose) (HPC)) 91 % of control; under setting [4], 101 % of control.

As to `COc1ccc2c(c1)[C@@]13CCCCC1[C@@H](C2)N(CC1CC1)CC3` (stereo partly specified), the T/C under setting [4] is 100 % of control and the T/C under setting [5] was 100 % of control.

For the compound `S=c1n(-c2ccc(Cl)cc2)c2/c(=N\Nc3cc(Cl)ccc3Cl)c(n1-c1ccccn1)=NCCN=2`, the T/C under setting [6] is 98 % of control; the T/C under setting [7] was 112 % of control; the T/C under setting [8] was 99 % of control and 112 % of control.

Turning to `CC(C)c1ccc(C(O)C2CC2)cc1` (stereo unspecified), the T/C by setting is: (dose: 50.0 mg/kg/injection, schedule: Q04DX003 (ip), vehicle: saline with Tween-80) 109 % of control; (dose: 100.0 mg/kg/injection, schedule: Q04DX003 (ip), vehicle: saline with Tween-80) 95 % of control.

For `CCOc1ccccc1NC(=S)Nc1ccccc1C(F)(F)F`, the T/C is 109 % of control under setting [9], 100 % of control under setting [10] and 100 % of control under setting [11].

On to `Nc1nc2nc(-c3ccccc3)nc(N)c2nc1C(=O)N/N=C/c1ccccc1`, for which the T/C by setting is: under setting [2], 96 % of control; under setting [3], 95 % of control; (dose: 400.0 mg/kg/injection, schedule: Q01DX009 (ip), vehicle: saline with Tween-80) 100 % of control.

Take `CN1CC[C@@H](c2ccccc2)[C@@H](O)C1`: the T/C reads like this: under setting [12], 97 % of control; under setting [13], 100 % of control.

As for `COc1ccc(C(c2c(O)c3ccccc3oc2=O)c2c(O)c3ccccc3oc2=O)cc1`, the T/C was 98 % of control under setting [6]; 98 % of control under setting [7]; 100 % of control and 98 % of control under setting [8].

As to `Cc1cc(N(C)C)c2ccc(N(C)C)cc2n1`, the T/C (dose: 12.5 mg/kg/injection, schedule: Q01DX005 (ip), vehicle: saline with Tween-80) was 97 % of control; the T/C (dose: 25.0 mg/kg/injection, schedule: Q01DX005 (ip), vehicle: saline with Tween-80) was 98 % of control; the T/C under setting [12] is 99 % of control and 104 % of control.

On to `C/C=C1\CNC2Cc3c([nH]c4ccccc34)C(c3c(OC)ccc4c5c([nH]c34)C3(C(=O)OC)CC4CC(CC)C3N(CC5)C4)CC1C2C(=O)OC` (stereo unspecified), for which the T/C runs as follows: (dose: 1.56 mg/kg/injection, schedule: Q01DX009 (ip), vehicle: saline with Tween-80) 93 % of control; under setting [14], 90 % of control; (dose: 12.5 mg/kg/injection, schedule: Q01DX009 (ip), vehicle: saline with Tween-80) 93 % of control; (dose: 25.0 mg/kg/injection, schedule: Q01DX009 (ip), vehicle: saline with Tween-80) 90 % of control.

For `COc1cc2c(O)c(c1)CCCC1=CC(=O)C=C(CCC2)C1=O`, the T/C is, setting by setting: (dose: 100.0 mg/kg/injection, schedule: Q01DX001 (ip), vehicle: saline with Tween-80) 99 % of control; (dose: 200.0 mg/kg/injection, schedule: Q01DX001 (ip), vehicle: saline with Tween-80) 101 % of control; (dose: 400.0 mg/kg/injection, schedule: Q01DX001 (ip), vehicle: saline with Tween-80) 94 % of control.

With `COC(=O)C1=C(C(=O)OC)P2(C)(C)ON=C(c3c(C)cc(C)cc3C)N2C1(c1ccccc1)c1ccccc1`, the T/C was 100 % of control and 95 % of control under setting [15]; 93 % of control under setting [16]; 91 % of control and 94 % of control under setting [17].

`C1#CCCCCCC#CCCCC1`: the T/C (dose: 20.0 mg/kg/injection, schedule: Q01DX009 (ip), vehicle: saline with Tween-80) was 109 % of control; the T/C (dose: 30.0 mg/kg/injection, schedule: Q01DX009 (ip), vehicle: saline with Tween-80) is 104 % of control; the T/C (dose: 44.0 mg/kg/injection, schedule: Q01DX009 (ip), vehicle: saline with Tween-80) is 100 % of control; the T/C (dose: 66.0 mg/kg/injection, schedule: Q01DX009 (ip), vehicle: saline with Tween-80) was 104 % of control; the T/C under setting [2] is 104 % of control; the T/C (dose: 150.0 mg/kg/injection, schedule: Q01DX009 (ip), vehicle: saline with Tween-80) was 109 % of control.

Consider `CCC(=O)OCc1c(Cl)nc2n1CCS2`, for which the T/C is, setting by setting: under setting [4], 100 % of control; under setting [5], 100 % of control.

For `Oc1cc2c(c3c(O)c4ccccc4c(O)c13)=NC1CCCCC1N=2` (stereo unspecified), the T/C (dose: 25.0 mg/kg/injection, schedule: Q01DX005 (ip), vehicle: Klucel (hydroxypropylcellulose) (HPC)) is 100 % of control; the T/C under setting [15] was 102 % of control; the T/C under setting [16] was 103 % of control; the T/C under setting [17] is 93 % of control.

Regarding `FC(F)(F)C1(C(F)(F)F)O[Si]2(OC(C(F)(F)F)(C(F)(F)F)c3ccccc32)c2ccccc21` (tested in a mixture with another compound), the T/C is, setting by setting: (dose: 25.0 mg/kg/injection, schedule: Q04DX002 (ip), vehicle: Klucel (hydroxypropylcellulose) (HPC)) 109 % of control; (dose: 50.0 mg/kg/injection, schedule: Q04DX002 (ip), vehicle: Klucel (hydroxypropylcellulose) (HPC)) 94 % of control; (dose: 100.0 mg/kg/injection, schedule: Q04DX002 (ip), vehicle: Klucel (hydroxypropylcellulose) (HPC)) 100 % of control and 102 % of control.

Take `CC(C)N1CC(CCN2CCOCC2)C(c2ccccc2)(C2CCCC2)C1=O` (stereo unspecified): the T/C by setting is: under setting [9], 106 % of control; under setting [10], 101 % of control; under setting [11], 108 % of control.

Regarding `C=CCNC(=S)Nc1ncn[nH]1`, the T/C was 95 % of control under setting [15] and 104 % of control under setting [16].

As to `Cc1cc2cc(CN)ccc2n1C`, the T/C under setting [4] was 103 % of control.

In the case of `CC(C)COC(=O)NC1c2ccccc2Oc2ccccc21`, the T/C reads like this: under setting [12], 95 % of control; under setting [13], 93 % of control; under setting [18], 89 % of control.

With `COP(=O)(O)OC.[U]`, the T/C is 118 % of control under setting [14] and 118 % of control (dose: 6.25 mg/kg/injection, schedule: Q01DX009 (ip), vehicle: saline with Tween-80).

For `CCOc1c(N=Nc2ccccc2C)c(-c2ccccc2)nn1C(N)=S`, the T/C under setting [12] is 90 % of control, the T/C under setting [13] is 88 % of control and the T/C under setting [18] was 90 % of control.

`CC1=CC[C@@H]2[C@@H](CC[C@@]2(C)O)C(C)(C)[C@H]1CC[C@@H]1[C@@]2(C)CC[C@@H](O)C(C)(C)O[C@@H]2CC[C@]1(C)O`: the T/C was 103 % of control (dose: 8.0 mg/kg/injection, schedule: Q01DX005 (ip), vehicle: saline + Tween-80 + alcohol); 103 % of control (dose: 16.0 mg/kg/injection, schedule: Q01DX005 (ip), vehicle: saline + Tween-80 + alcohol); 97 % of control (dose: 32.0 mg/kg/injection, schedule: Q01DX005 (ip), vehicle: saline + Tween-80 + alcohol); 96 % of control (dose: 64.0 mg/kg/injection, schedule: Q01DX005 (ip), vehicle: saline + Tween-80 + alcohol).

Regarding `CCn1c(=O)c2[nH]c(C(F)(F)F)nc2n(CC)c1=O`, the T/C (dose: 25.0 mg/kg/injection, schedule: Q01DX009 (ip), vehicle: Klucel (hydroxypropylcellulose) (HPC)) was 86 % of control and the T/C under setting [9] was 99 % of control.

`O=C(NCCCCCCCCNC(=O)C(Cl)Cl)C(Cl)Cl`: the T/C is, setting by setting: under setting [12], 106 % of control; under setting [13], 99 % of control; under setting [18], 92 % of control.

On to `CS(=O)(=O)OCC(Br)C(Br)COS(C)(=O)=O` (stereo unspecified), for which the T/C under setting [9] is 107 % of control and the T/C under setting [10] was 87 % of control.
